Key:
[1] = Octanol:water partition coefficient; type: physicochemical; settings: read-out: Octanol: water partition coefficient (log P)
Excerpt: Administering a better absorbed more lipophilic prodrug, which is subsequently hydrolysed to GP531, achieves an increase in the systemic availability of GP531.

[2] = Urinary excretion of GP531 after oral dosing in rat (relative/absolute bioavailability); type: in vivo
Experimental: Two separate studies were conducted in the rat using the free base and/or the water soluble hydrochloride salt of Formula Va. In the first study, equimolar doses of GP531 (20 mg/kg) were administered orally in aqueous solution to separate groups (n=3) of rats as GP531 tartrate or Formula Va hydrochloride. […] Cmax increased 6-fold and AUC over 0-4 hr increased 4-fold. In a subsequent study, using the same equimolar doses of GP531 tartrate and prodrug, the relative bioavailability of GP531 was estimated in a group of rats (n=4) by comparison of the amount of GP531 excreted in urine after dosing.

In the case of `CC(C)(C)C(=O)O[C@@H]1[C@H](OC(=O)C(C)(C)C)[C@@H](CNCc2ccccc2)O[C@H]1n1cnc(C(N)=O)c1N` [Formula Va], the logP [1] is reported as 3.31 and the “GP531 bioavailability, free base vs hydrochloride salt of the prodrug” value [2] is reported as “no significant difference”.
